Results reported in patent US20160123960A1, “METHOD FOR PREPARING THREE-DIMENSIONAL, ORGANOTYPIC CELL CULTURES AND USES THEREOF” (priority 2013, published 2016).

Key:
H1048 μOTOCs = assay: 18F-FDG uptake in μOTOCs by Cerenkov Luminescence Imaging, H1048; assay type: cell-based; conditions: 250 μM, 24 hrs, CLI
Procedure: (§1) Cobalt chloride (CoCl2) is known to cause an increase in 18F-FDG uptake in cells treated /over 24 hours. As such, 250 μM CoCl2 was used to test whether μTOCs could be imaged.
(§2) μOTOCs of H1048 (small cell lung carcinoma) and T47D (mammary gland; ductal carcinoma) cells were generated using the method described in Example 1.
(§3) On Day 3 post seeding/creation of the OTOCs (i.e, after forming the μOTOCs in oil then transferring to T75 flask for 3 days of culture), the μOTOCs were transferred one at a time via pipette into a 96 well plate (1 μOTOC/well). 250 μM CoCl2 was added to each well. Cerenkov Luminescence Imaging was used to monitor the FDG response in vitro.

T47D μOTOCs = assay: 18F-FDG uptake in μOTOCs by Cerenkov Luminescence Imaging, T47D; assay type: cell-based; conditions: 250 μM, 24 hrs, CLI
Procedure: as §1, §2, §3

H460 OTOCs = assay: 18F-FDG uptake in OTOCs by Cerenkov Luminescence Imaging, H460; assay type: cell-based; conditions: 700 ng/ml, 24 hr time point, CLI
Excerpt: (§4) The objective of this study was to monitor radio-labeled compound uptake in vitro using the OTOC system described herein. Three tumor cell lines (HT-29 (colon tumor cell line), HCT-116 (colon tumor cell line), and H460 (lung tumor cell line) were used to generate OTOCs in order to test the effects of FDG uptake after drug treatment with MLN9708, a proteasome inhibitor. OTOCs for each cell line were transferred to 6 well plates, respectively, with 6 OTOCs/well.
(§5) An in vitro dosage of MLN9708 was extrapolated from historical in vivo PK studies for this compound. A 700 ng/ml concentration was decided upon and used in the OTOC studies described herein (derived from the mean tumor concentration achievable with a standard dose of MLN9708 (11 mg/kg PK dose, IV)).
(§6) The imaging modality Cerenkov Luminescence Imaging (CLI, Robertson et al. (2009) Phys. Med. Biol. 54:N355-N365) was used to monitor the FDG response in vitro.
(§7) The cell line HT-29 (KRAS WT) is known to be responsive to MLN9708 in vivo (t/c <0.3), while HCT-116 and H460 (both KRAS mutants) have shown resistance to proteasome inhibition (data not shown). OTOCs were imaged via CLI at 24, 48, 72, 96 hours post compound administration.

HT-29 OTOCs = assay: 18F-FDG uptake in OTOCs by Cerenkov Luminescence Imaging, HT-29; assay type: cell-based; conditions: 700 ng/ml, 24 hr time point, CLI
Excerpt: as §4, §5, §6, §7

HT-29 (KRAS WT) = assay: In vivo response of HT-29 (t/c); conditions: HT-29 in vivo
HCT-116 OTOCs = assay: 18F-FDG uptake in OTOCs by Cerenkov Luminescence Imaging, HCT-116; assay type: cell-based; conditions: 700 ng/ml, 24 hr time point, CLI
Excerpt: as §4, §5, §6, §7

[1] = system: HCT-116 (HCT-116-Luc) OTOCs; conditions: repeated experiment, newly generated HCT-116 OTOCs and InSphero spheroids
Procedure: 24 OTOCs were removed and placed in a 6-well plate, 4 OTOCs/well on day 3 post OTOC seeding/creation.
At 4 days post drug administration all OTOC's were collected for viability measurement to look at growth kinetics and drug resistance to STP.
Each OTOC was placed in a glass test tube with several glass beads. Approximately 800 of PBS was added to test tube and the tube was vortexed for 2-3 min to disrupt the OTOC. After vortexing each test tube was placed on ice until sampling. A black 96 well plate was used for the samples. For each lane 100 μl of the OTOC solution was placed in each well (8 wells/800 (total)/OTOC) until all OTOCs samples were completed. 100 μl of Celltiter glow was added to each well and the plates were rested for 10 min before reading. IVIS Spectrum was run on Auto exposure for each plate and the Living Image analysis program was used to determine Radiance/per well. Lanes were added up and group average and error was determined.
The same conditions that were use in the previous InSphero experiment (in regards to dose and timing) were used in this experiment.

HCT-116 spheroids = assay: InSphero assay (hanging drop spheroids), HCT-116; conditions: Homo sapiens
Excerpt: This experiment that was undertaken was to determine if there was an increase in the resistance of known drug in comparison of the spheroid culture to OTOC format. The same conditions that were use in the previous InSphero experiment (in regards to dose and timing) were used in this experiment.

Compound: [Cl][Co][Cl] [CoCl2, Cobalt chloride]
- increase in 18F-FDG uptake (H1048 μOTOCs): 22.6%
- increase in FDG uptake (T47D μOTOCs): 33.7%

Compound: CC(C)C[C@H](NC(=O)CNC(=O)c1cc(Cl)ccc1Cl)B1OC(=O)C(CC(=O)O)(CC(=O)O)O1 [MLN9708]
- FDG signal change from control (H460 OTOCs): -10%
- increased FDG uptake (HT-29 OTOCs): 48%
- t/c (HT-29 (KRAS WT)): < 0.3
- FDG uptake response (HCT-116 OTOCs): < 10%

Compound: CN[C@@H]1C[C@H]2O[C@@](C)([C@@H]1OC)n1c3ccccc3c3c4c(c5c6ccccc6n2c5c31)C(=O)NC4 [Staurosporine]
- greater resistance in OTOCs assay as compared to InSphero assay [1]: 1800 ×
- IC50 (HCT-116 spheroids): 37 nM
